According to US20090186915A1, “Compositions and methods for treatment of glioblastoma, gliosarcoma, NSCLC, and head and neck cancer” (Unibioscreen S. A., priority 2006, published 2009):
Read-outs that look alike come from different tables or passages of the source.

Key:
[1] = test system: nine human cancer cell lines; assay: MTT colorimetric assay, mean of nine cell lines; type: cell-based; details: mean over nine human cancer cell lines, read-out: mean antiproliferative activity IC50
Experimental: The overall growth of human cancer cell lines was determined by means of the calorimetric MTT (3-[4,5-dimethylthiazol-2-yl]-diphenyl tetrazolium bromide; Sigma) assay, as detailed previously.
UNBS3157 and UNBS5162 display weak antiproliferative activity in vitro.

[2] = test system: human PC-3 orthotopic xenografts
Experimental: Orthotopic xenografts were obtained by injecting 2.5×10^6 human PC-3 or DU-145 cells into the prostate of 6-week-old male nu/nu mice (n=9 animals per treatment group). All grafts were performed under anesthesia [saline/Rompun (Bayer, Leverkusen, Germany)/Imalgene (Merial, Lyons, France); 5:1:1 by volume]. The end point in these orthotopic experiments was the survival period of the tumor-bearing mice after the administration of UNBS3157, UNBS5162, or reference anticancer agents (taxol, mitoxantrone, and amonafide). However, for ethical reasons, animals were killed when 20% of body weight had been lost compared to that determined at the time of tumor grafting. All animals were weighed three times a week. […] In the case of UNBS5162 experiments in the PC-3 model, after the sacrifice of animals, tumors were removed from both drug-treated [10 mg/kg, intravenous (i.v.)] and vehicle-treated mice, fixed in buffered formalin, embedded in paraffin, and 5-μm-thick sections taken. These histologic slides were then stained with hematoxylin and eosin for blood vessel counts.

[3] = Body weight of MXT-HI tumor-bearing mice; type: in vivo, female B6D2F1 mice; details: for Mean body weight: UNBS5162 i.v. (5i × 3w) 10 mg/kg, alone or with 10 gray

Q: With `CN(C)CCN1C(=O)c2cccc3cc(NC(N)=O)cc(c23)C1=O` [UNBS5162, N-{2-[2-(dimethylamino)ethyl]-1,3-dioxo-2,3-dihydro-1H-benzo[de]isoquinolin-5-yl}urea] as the molecule, how does the IC50 [1] read?
A: Its IC50 is 17.9 µM.

Q: What about the “angiogenesis in tumors (histopathology, blood vessel counts)” value ([2]; PC-3 orthotopic model, 10 mg/kg i.v.) of the same molecule?
A: Its value is “anti-angiogenic properties in vivo”.

Q: What about the “therapeutic benefit (survival)” value ([2]; PC-3 orthotopic model, 10 mg/kg i.v. three times a week for 6 consecutive weeks) of the same molecule?
A: The value was “therapeutic benefits that were similar to repeat i.v. administration (once a week for 6 consecutive weeks) of 20-mg/kg taxol”.

Q: What about the “therapeutic benefit (survival) in combination” value ([2]; PC-3 orthotopic model, UNBS5162 10 mg/kg i.v. at the same time as taxol 20 mg/kg i.v.) of the same molecule?
A: The value was “significantly (P<0.01) increased the therapeutic benefit contributed by taxol alone”.

Q: What about the “therapeutic benefit (survival) in combination” value ([2]; PC-3 orthotopic model, UNBS5162 before or after taxol) of the same molecule?
A: Its value is “did not modify the therapeutic benefit contributed by taxol alone”.

Q: And the “toxicity of combined treatment (mouse weight, behavior)” value ([2]; mouse, in vivo)?
A: Its value is “did not contribute higher toxicity”.

Q: What about the Mean body weight ([3]; Day 14) of the same molecule?
A: The Mean body weight was 22.13 g.

Q: What about the Mean body weight ([3]; Day 16) of the same molecule?
A: The Mean body weight was 23.39 g.

Q: And the Mean body weight ([3]; Day 19)?
A: The Mean body weight was 25.72 g.

Q: What about the Mean body weight ([3]; Day 21) of the same molecule?
A: Its Mean body weight is 24.35 g.

Q: What about the Mean body weight ([3]; Day 23) of the same molecule?
A: Its Mean body weight is 25.46 g.

Q: And the Mean body weight ([3]; Day 26)?
A: Its Mean body weight is 28.52 g.

Q: What about the “changes in body weights compared to control” value ([3]; UNBS5162 10 mg/kg i.v. 5i×3w, alone or with 1×10 gray) of the same molecule?
A: The value was “No significant changes in body weights”.
